{"source": "patent US5760013A", "about": "“Thymidylate analogs and the use thereof” (National Science Council, priority 1996, dated 1998)", "key": {"[1]": {"test": "Determination of solubility in phosphate buffer (UV absorbance)", "format": "physicochemical", "settings": "for water solubility, in words: compared with AZT", "quoted_text": "Determination of Solubility. Each compound (70 mg) listed in Table 1 was agitated in a 25-mL volumetric flask with phosphate buffer (0.10M, 5.0 mL) for 20 h."}, "HIV-1(III B)": {"tested_on": "HIV-1(III B)", "test": "Inhibition of cytopathogenicity of HIV-1(IIIB) in MT4 cells, cell-protection assay", "format": "cell-based, human immunodeficiency virus type 1 (HIV-1)"}, "MT4 cell": {"tested_on": "MT4 cell", "test": "Cellular toxicity in uninfected MT4 cells", "format": "cell-based", "settings": "Homo sapiens", "description": "Toxicity of these compounds was evaluated by their ability to cause morphological changes in cells at different concentrations.\n^a Inhibitory concentrations (IC50) represent the average of\ntriplicate determinations;\n^b Concentration of the compound required to reduce the number of\nviable uninfected cells by 50%; and […]"}, "[2]": {"settings": "phosphate buffer (0.10M), agitated 20 h"}, "[3]": {"settings": "Human immunodeficiency virus 1, cytopathogenicity in MT4 cells, average of triplicate determinations, read-out: IC50 HIV-1(III B)"}, "[4]": {"settings": "uninfected MT4 cells, average of triplicate determinations, read-out: IC50 MT4 cell (concentration required to reduce the number of viable uninfected cells by 50%)"}}, "note": "Read-outs that look alike come from different tables or passages of the source.", "data": [{"smiles": "COC(=O)[C@@H](C)NP(=O)(C[C@H]1O[C@@H](n2cc(C)c(=O)[nH]c2=O)C[C@@H]1F)O[C@H]1C[C@H](n2cc(C)c(=O)[nH]c2=O)O[C@@H]1CO", "note": "(stereo partly drawn) [Compound XI, (2R,4S,5R)-1-[4-Fluorotetrahydro-5-[[(3'-O-thymidinyl)(methoxy-D-alaninyl)-phosphinylidene]methyl]-2-furyl]thymine]", "values": [{"measurement": "solubility in H2 O", "setting": "[1]; [2]", "result": 8920, "unit": "µg/mL"}, {"measurement": "IC50", "setting": "HIV-1(III B); [3]", "result": 0.5, "unit": "µg/mL"}, {"measurement": "IC50", "setting": "MT4 cell; [4]", "result": 462, "unit": "µg/mL"}]}, {"smiles": "Cc1cn([C@H]2C[C@H](OP(=O)(O)C[C@H]3O[C@@H](n4cc(C)c(=O)[nH]c4=O)C[C@@H]3F)[C@@H](CO)O2)c(=O)[nH]c1=O", "note": "[Compound VII, (2R,4S,5R)-1-[4-Fluorotetrahydro-5-[(3'-O-thymidinyl-phosphinico)methyl]-2-furyl]thymine]", "values": [{"measurement": "solubility in H2 O", "setting": "[1]; [2]", "result": 3980, "unit": "µg/mL"}, {"measurement": "IC50", "setting": "HIV-1(III B); [3]", "result": 3.04, "unit": "µg/mL"}, {"measurement": "IC50", "setting": "MT4 cell; [4]", "result": 79, "unit": "µg/mL"}]}, {"smiles": "COC(=O)[C@@H](C)NP(=O)(C[C@H]1O[C@@H](n2cc(C)c(=O)[nH]c2=O)C[C@@H]1N=[N+]=[N-])O[C@H]1C[C@H](n2cc(C)c(=O)[nH]c2=O)O[C@@H]1CO", "note": "(stereo partly drawn) [Compound XII, (2R,4S,5R)-1-[4-Azidotetrahydro-5-[[(3'-O-thymidinyl)(methoxy-D-alaninyl)-phosphinylidene]methyl]-2-furyl]thymine]", "values": [{"measurement": "water solubility, in words", "setting": "[1]", "result": "higher than that of AZT"}, {"measurement": "solubility in H2 O", "setting": "[1]; [2]", "result": 9200, "unit": "µg/mL"}, {"measurement": "IC50", "setting": "HIV-1(III B); [3]", "result": 0.76, "unit": "µg/mL"}, {"measurement": "IC50", "setting": "MT4 cell; [4]", "result": 458, "unit": "µg/mL"}]}, {"smiles": "Cc1cn([C@H]2C[C@H](N=[N+]=[N-])[C@@H](CP(=O)(O)O[C@H]3C[C@H](n4cc(C)c(=O)[nH]c4=O)O[C@@H]3CO)O2)c(=O)[nH]c1=O", "note": "[VIII, (2R,4S,5R)-1-[4-Azidotetrahydro-5-[(3'-O-thymidinyl-phosphinico)methyl]-2-furyl]thymine]", "values": [{"measurement": "solubility in H2 O", "setting": "[1]; [2]", "result": 3240, "unit": "µg/mL"}, {"measurement": "IC50", "setting": "HIV-1(III B); [3]", "result": 1.92, "unit": "µg/mL"}, {"measurement": "IC50", "setting": "MT4 cell; [4]", "result": 99.5, "unit": "µg/mL"}]}, {"smiles": "Cc1cn([C@H]2C[C@H](N=[N+]=[N-])[C@@H](CO)O2)c(=O)[nH]c1=O", "note": "[AZT, 3'-Azido-3'-deoxythymidine, reference compound]", "values": [{"measurement": "IC50", "setting": "HIV-1(III B); Human immunodeficiency virus 1, MT4, read-out: IC50 HIV-1(III B)", "result": 0.02, "unit": "µg/mL"}, {"measurement": "IC50", "setting": "MT4 cell; MT4, read-out: IC50 MT4 cell (concentration required to reduce the number of viable uninfected cells by 50%)", "result": 57.3, "unit": "µg/mL"}]}, {"smiles": "Cc1cn([C@H]2C[C@H](N=[N+]=[N-])[C@@H](CP(=O)(O)O)O2)c(=O)[nH]c1=O", "note": "[Compound VI, 3'-Azido-3',5'-dideoxythymidine-5'-phosphonic Acid]", "values": [{"measurement": "solubility at 20 h", "setting": "[1]; 0.10 m phosphate buffer, aqueous buffer, phosphate buffer (0.10M), agitated 20 h, read-out: solubility in H2 O", "result": 11100, "unit": "µg/mL"}, {"measurement": "IC50", "setting": "HIV-1(III B); [3]", "result": 7.68, "unit": "µg/mL"}, {"measurement": "IC50", "setting": "MT4 cell; [4]", "result": 115, "unit": "µg/mL"}]}, {"smiles": "Cc1cn([C@H]2CC[C@@H](CP(=O)(O)O)O2)c(=O)[nH]c1=O", "note": "[III, 3',5'-Dideoxythymidine-5'-phosphonic acid]", "values": [{"measurement": "IC50", "setting": "HIV-1(III B); [3]", "result": 23.5, "unit": "µg/mL"}, {"measurement": "IC50", "setting": "MT4 cell; [4]", "result": 128, "unit": "µg/mL"}]}, {"smiles": "COC(=O)[C@H](C)NP(=O)(C[C@H]1O[C@@H](n2cc(C)c(=O)[nH]c2=O)C[C@@H]1F)O[C@H]1C[C@H](n2cc(C)c(=O)[nH]c2=O)O[C@@H]1CO", "note": "(stereo partly drawn) [Compound IX, (2R,4S,5R)-1-[4-Fluorotetrahydro-5-[[(3'-O-thymidinyl)(methoxy-L-alaninyl)-phosphinylidene]methyl]-2-furyl]thymine]", "values": [{"measurement": "solubility in H2 O", "setting": "[1]; [2]", "result": 8790, "unit": "µg/mL"}, {"measurement": "IC50", "setting": "HIV-1(III B); [3]", "result": 0.34, "unit": "µg/mL"}, {"measurement": "IC50", "setting": "MT4 cell; [4]", "result": 180, "unit": "µg/mL"}]}, {"smiles": "Cc1cn([C@H]2C[C@H](F)[C@@H](CP(=O)(O)O)O2)c(=O)[nH]c1=O", "note": "[Compound V, 3'-Fluoro-3',5'-dideoxythymidine-5'-phosphonic acid]", "values": [{"measurement": "water solubility, in words", "setting": "[1]", "result": "higher than that of AZT"}, {"measurement": "solubility in H2 O", "setting": "[1]; [2]", "result": 12260, "unit": "µg/mL"}, {"measurement": "IC50", "setting": "HIV-1(III B); [3]", "result": 11.8, "unit": "µg/mL"}, {"measurement": "IC50", "setting": "MT4 cell; [4]", "result": 98.7, "unit": "µg/mL"}]}, {"smiles": "COC(=O)[C@H](C)NP(=O)(C[C@H]1O[C@@H](n2cc(C)c(=O)[nH]c2=O)C[C@@H]1N=[N+]=[N-])O[C@H]1C[C@H](n2cc(C)c(=O)[nH]c2=O)O[C@@H]1CO", "note": "(stereo partly drawn) [Compound X, (2R,4S,5R)-1-[4-Azidotetrahydro-5-[[(3'-O-thymidinyl)(methoxy-L-alaninyl)-phosphinylidene]methyl]-2-furyl]thymine]", "values": [{"measurement": "solubility in H2 O", "setting": "[1]; [2]", "result": 9130, "unit": "µg/mL"}, {"measurement": "IC50", "setting": "HIV-1(III B); [3]", "result": 0.61, "unit": "µg/mL"}, {"measurement": "IC50", "setting": "MT4 cell; [4]", "result": 200, "unit": "µg/mL"}]}, {"smiles": "Cc1cn([C@H]2C[C@H](C#N)[C@@H](CP(=O)(O)O)O2)c(=O)[nH]c1=O", "note": "[IV, 3'-Cyano-3',5'-dideoxythymidine-5'-phosphonic acid]", "values": [{"measurement": "IC50", "setting": "HIV-1(III B); [3]", "result": "> 128", "unit": "µg/mL"}, {"measurement": "IC50", "setting": "MT4 cell; [4]", "result": 69.9, "unit": "µg/mL"}]}]}
